Source: US10363231B2, “Compounds and methods of treating ocular disorders” (CASE WESTERN RESERVE UNIVERSITY, priority 2014, dated 2019)
Where two headings read alike, the source gives them in different places.

Legend:
LRAT = biological target: T1, LRAT (Bos taurus, UniProt Q9BGL2); test: LRAT activity assay with bovine RPE microsomes (esterification of the corresponding primary alcohols); format: biochemical; details: percentage of the corresponding primary alcohol esterified by LRAT in 1 h at 37° C; 10 μM; RPE microsomes
T1 construct: incubated with RPF microsomes that served as a source of LRAT enzymatic activity; from tissue; host or cells: bovine retinal pigment epithelium (RPE) microsomes
T1 sequence (Q9BGL2 1-230): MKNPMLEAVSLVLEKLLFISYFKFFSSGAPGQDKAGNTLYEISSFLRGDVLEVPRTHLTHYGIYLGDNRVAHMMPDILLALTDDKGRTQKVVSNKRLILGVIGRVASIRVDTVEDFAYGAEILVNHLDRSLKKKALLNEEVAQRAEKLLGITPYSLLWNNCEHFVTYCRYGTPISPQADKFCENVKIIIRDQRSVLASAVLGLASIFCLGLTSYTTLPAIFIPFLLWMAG
Procedure: (§1) Bovine RPE microsomes were isolated from RPE homogenates by differential centrifugation as previously described. The resulting microsomal precipitate was resuspended in 10 mM Bis-Tris propane/HCl buffer, pH 7.4, to achieve a total protein concentration of […]. Then the mixture was placed in a quartz cuvette and irradiated for 6 min at 4° C. with a ChromatoUVE transilluminator (model TM-15; UVP) to eliminate residual retinoids. After irradiation, DTT was added to the RPE microsomal mixture to achieve a final concentration of 5 mM.
Two μl of a synthesized primary alcohol or amine dissolved in DMF (final concentration 10 μM) and 2 μl of 1,2-diheptanoyl-sn-glicerol-3-phosphocholine (water, final concentration 1 mM) were added to 200 μl of 10 mM Bis-Tris propane/HCl buffer, pH 7.4, containing 150 μg of RPE microsomes and 1% (v/w) BSA. The resulting mixture was incubated at 37° C. for 1 h. The reaction was quenched by adding 300 μl of methanol. Most reaction products were extracted with 300 μl of hexanes, except for products from the QEA-C-006 and QEA-G groups which were extracted by adding 300 μl of ethyl acetate and 300 μl of water.
Reaction products were separated and quantified by normal phase HPLC (Agilent Sil 5 μm, 4.6 mm×250 mm) in stepwise gradient of ethyl acetate in hexanes (0-15 min, 10%; 20-30 min, 30%) at a flow rate of 1.4 ml·min^−1.
The properties of retinoid derivatives were examined by two standard enzymatic tests, the […] and retinoid isomerization assays. To identify substrates of LRAT, aldehydes were reduced by sodium borohydrate to their corresponding primary alcohols that then were directly used in the esterification assay (FIG. 2B).
The alcohols were incubated with RPF microsomes that served as a source of LRAT enzymatic activity. Products of the enzymatic reaction as well as the remaining substrates were extracted with organic solvents and analyzed by HPLC. The ratio between a substrate and its esterified form was used to measure enzymatic activity efficiency, based on equivalent UV absorption of the substrate and product at their specific UV maxim wavelengths. Compounds classified as ‘good’ LRAT substrates converted at least 50% of their available alcohol substrates into corresponding esters under these experimental conditions, whereas marginal LRAT substrates were converted at less than 5%. Alcohols with a 5-50% conversion ratio were classified as weak substrates. Among 35 tested compounds, 23 were categorized as good and 9 as weak substrates; 3 compounds were not esterified by LRAT (Table 1 and FIG. 2C). […] Moreover, breaking double bond conjugation along the polyene chain or deletion of a C9 and/or a C13 methyl group also was allowed.

RPE65 = biological target: T2, RPE65 (Bos taurus, UniProt Q28175); test: Retinoid isomerase activity assay (11-cis-retinol production in RPE microsomes); format: biochemical, Bovine
T2 construct: from tissue; host or cells: bovine retinal pigment epithelium (RPE) microsomes
Procedure: as §1
[…] The resulting mixture was pre incubated at room temperature for 5 min. Then 1 μl of all-trans-retinol (in DMF, final concentration 20 μM) was added. The resulting mixture was incubated at 37° C. for 15 min to 2 h. The reaction was quenched by adding 300 μl of methanol, and products were extracted with 300 μl of hexanes. Production of 11-cis-retinol was quantified by normal phase HPLC with 10% (v/v) ethyl acetate in hexanes as the eluent at a flow rate of 1.4 ml·min^−1. Retinoids were detected by monitoring their absorbance at 325 nm and quantified based on a standard curve representing the relationship between the amount of 11-cis-retinol and the area under the corresponding chromatographic peak.
Primary amines of compounds derived from the aldehydes were subsequently tested for their ability to inhibit the RPE65-dependent retinoid isomerization reaction in dose- and time dependent reactions as exemplified by QEB-B-001 (FIG. 3B). Amines were incubated with RPE microsomes in the presence of all-trans-retinol and the 11-cis-retinoid binding protein, CRALBP.
Progress of the enzymatic reaction was monitored by HPLC separation of retinoids and quantification of 11-cis-retinol with a decrease of 11-cis-retinol production reflecting inhibition of RPE65 by a tested amine. […] This moderate inhibition could be enhanced by shortening the polyene chain length (TEA amines) or diminished by introducing an extra positive charge into the tested compounds (QEA-G amines).

[1] = Analysis of retinoid composition in mouse tissues: amide forms in liver by HPLC; format: in vivo, mice; details: oral gavage; for Protection by amide in liver: 4-week-old Abca4−/−Rdh8−/− mice, dark 24 h, liver extracts by HPLC; for amidation in vivo (accumulation of amide forms in mouse liver): liver HPLC
Procedure: (§2) Abca4^−/−Rdh8^−/− double knockout mice were generated as previously described. Mice were housed in the animal facility at the School of Medicine, Case Western Reserve University, where they were maintained under either complete darkness or in a 12-h light (˜300 lux) and 12-h dark cycle. All tested primary amines were suspended in 100 μl of soybean oil with less than 10% (v/v) DMSO and were administered by oral gavage with a 22-gauge feeding needle. Experimental manipulations in the dark were done under dim red light transmitted through a Kodak No. 1 safelight filter (transmittance >560 nm). All animal procedures and experiments were approved by the Case Western Reserve University Animal Care Committees and conformed to recommendations of the American Veterinary Medical Association Panel on Euthanasia and the Association of Research for Vision and Ophthalmology.
Two mg of primary amines were administered by oral gavage to 4-week-old Abca4^−/−Rdh8^−/− mice, which then were kept in the dark for 24 h. Then mice were euthanized, and their livers were homogenized in 1 ml of 10 mM sodium phosphate buffer, pH 7.4, containing 50% methanol (v/v). The resulting mixture was extracted with 4 ml of hexanes. Extracts were dried in vacuo, and reconstituted in 300 μl of hexanes. 100 μl of this solution was analyzed by HPLC as described above for the LRAT activity assay.
(§3) For practical reasons, only eight of these leading compounds (QEA-B-001-NH2, B-002-NH2, C-001-NH2, C-003-NH2, C006-NH2, E-002-NH2, TEA-B-002-NH2, and C00-2-NH2) along with retinylamine as a control were selected for further testing in Abca4^−/−Rdh8^−/− mice, an animal model for light-induced retinal degeneration (Table 2). Additionally, two novel amines with moderate inhibition of RPE65 (QEA-A-006-NH2 and QEA-B-003-NI 12) and one with strong inhibition (QEA-A-005-NH2) were added to the first test group for comparison. Mice were gavaged with 1 mg of a test compound and then kept in the dark for 24 h prior to being exposed to bright light (˜10,000 lux) for 1 h. Retinal damage was assessed with OCT that measured the thickness of the outer nuclear layer and by quantification of tissue 11-cis retinal levels. An example is shown for imaging results in FIG. 4A and for 11-cis-retinal quantification in FIG. 4B. Additionally, extracts of livers obtained from treated mice were analyzed by HPLC to estimate the amounts of corresponding amides (FIG. 4C).

Abca4^−/−Rdh8^−/− mice [2] = test: Toxicity in treated Abca4−/−Rdh8−/− mice (Table 2); format: in vivo; details: 4-week-old Abca4−/−Rdh8−/− mice, oral gavage
Procedure: as §2, §3

Abca4^−/−Rdh8^−/− mice [3] = test: Light-induced acute retinal degeneration in Abca4−/−Rdh8−/− mice (OCT, 11-cis-retinal, ERG); format: in vivo; details: 2 mg; dark 24 h, then 10,000 lux 1 h
[4] = primary amine, decline in 11-cis-retinol production in RPE microsomes, read-out: Inhibition of RPE65

T2 sequence (Q28175 whole entry): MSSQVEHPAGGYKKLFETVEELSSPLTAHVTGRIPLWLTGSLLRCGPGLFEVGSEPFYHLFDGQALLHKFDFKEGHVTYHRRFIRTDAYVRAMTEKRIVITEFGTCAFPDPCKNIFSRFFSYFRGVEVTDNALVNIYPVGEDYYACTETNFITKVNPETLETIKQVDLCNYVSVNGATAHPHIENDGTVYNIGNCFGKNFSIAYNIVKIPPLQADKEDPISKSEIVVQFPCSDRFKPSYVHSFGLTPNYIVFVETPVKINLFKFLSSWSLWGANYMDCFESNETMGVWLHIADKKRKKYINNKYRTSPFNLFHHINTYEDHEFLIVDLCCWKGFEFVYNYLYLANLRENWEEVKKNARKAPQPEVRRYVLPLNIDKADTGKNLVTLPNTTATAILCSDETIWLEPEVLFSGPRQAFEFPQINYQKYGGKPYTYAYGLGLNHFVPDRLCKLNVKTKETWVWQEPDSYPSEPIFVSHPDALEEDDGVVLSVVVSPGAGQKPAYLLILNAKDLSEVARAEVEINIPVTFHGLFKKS

CC(/C=C/C=C(/C=C/c1ccc(C(F)(F)F)cc1)c1ccccc1)=C\CN [QEA-C-003-NH2]
LRAT Substrate (LRAT): 100%
inhibition of RPE65 (RPE65): did not inhibit
IC50 (RPE65; [4]): > 200 µM
Protection by amide in liver [1]: None
amidation in vivo (accumulation of amide forms in mouse liver) [1]: not efficiently amidated
Toxicity (Abca4^−/−Rdh8^−/− mice [2]): Yes

COc1ccc(C(=C\C=C\C(C)=C\CN)/C=C/c2ccc(O)cc2)cc1 [QEA-C-006-NH2]
LRAT Substrate (LRAT): 50%
inhibition of RPE65 (RPE65): did not inhibit
IC50 (RPE65; [4]): > 200 µM
Protection by amide in liver [1]: None
amidation in vivo (accumulation of amide forms in mouse liver) [1]: not efficiently amidated
Toxicity (Abca4^−/−Rdh8^−/− mice [2]): None

CC(/C=C/C1=CCCCC1)=C\C=C\C(C)=C\CN [QEA-A-006-NH2]
LRAT Substrate (LRAT): 100%
IC50 (RPE65; [4]): 10 to 100 µM
Protection by amide in liver [1]: None
amidation in vivo (accumulation of amide forms in mouse liver) [1]: not efficiently amidated
Toxicity (Abca4^−/−Rdh8^−/− mice [2]): None

COc1ccc(C(=C\C=C\C(C)=C\CN)/C=C/C2=CCCCC2)cc1 [QEA-E-002-NH2]
LRAT Substrate (LRAT): 100%
inhibition of RPE65 (RPE65): did not inhibit
IC50 (RPE65; [4]): > 200 µM
Protection by amide in liver [1]: Weak
amidation in vivo (accumulation of amide forms in mouse liver) [1]: not efficiently amidated
Toxicity (Abca4^−/−Rdh8^−/− mice [2]): None

CC1=C(/C=C/C=C/C=C/C=C/CN)C(C)(C)CCC1 [QEA-A-005-NH2]
LRAT Substrate (LRAT): 100%
IC50 (RPE65; [4]): < 10 µM
IC50 (RPE65; read-out: inhibition of RPE65): < 10 µM
Protection by amide in liver [1]: Strong
protection of ONL (averaged ONL thickness by OCT) (Abca4^−/−Rdh8^−/− mice [3]): protected
Toxicity (Abca4^−/−Rdh8^−/− mice [2]): None
